Reference: publication PMC5216056 (Nature Communications, 2017)
Where “and” joins values, the source holds several entries; their conditions need not be identical. Identical values can stand only once. Like-named read-outs stand apart in the source and are kept apart here.

Experiments:
[1] = molecular target: T1, hABHD12 (Homo sapiens, UniProt Q8N2K0); experiment: ABHD12 activity; format: biochemical
T1 construct: expressed in transfected cells
T1 sequence (Q8N2K0 1-398): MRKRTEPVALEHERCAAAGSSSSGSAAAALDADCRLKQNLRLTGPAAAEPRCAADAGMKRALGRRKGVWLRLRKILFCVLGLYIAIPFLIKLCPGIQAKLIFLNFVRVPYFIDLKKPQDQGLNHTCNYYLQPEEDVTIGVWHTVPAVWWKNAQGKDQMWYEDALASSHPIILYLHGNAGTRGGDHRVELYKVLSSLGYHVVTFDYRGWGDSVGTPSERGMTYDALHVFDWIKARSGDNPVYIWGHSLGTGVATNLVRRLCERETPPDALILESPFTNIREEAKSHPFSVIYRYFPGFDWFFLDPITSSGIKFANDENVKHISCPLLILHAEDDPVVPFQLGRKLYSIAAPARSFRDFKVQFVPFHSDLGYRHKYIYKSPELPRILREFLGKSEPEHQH
Excerpt: HEK293T cells were obtained from American Type Culture Collection (ATCC, Manassas, VA, USA). Lipofectamine 2000 was obtained from Life Technologies (Carlsbad, CA, USA) and geneticin from InvivoGen. Cell culture medium, FBS, and cell culture supplements were from Invitrogen (Carlsbad, CA, USA). pCMV6-AC-hABHD6 and pCMV6-XL4-hABHD12 were a kind gift from Prof Jarmo T. Laitinen. hABHD12 sequence was subsequently inserted in a pcDNA3.1 plasmid in order to generate a stable cell line. The effect of CB2R ligands on ABHD6 and ABHD12 hydrolytic activity was determined using cell homogenate from hABHD6 and hABHD12 overexpressing HEK293T cells (40 μg total protein per condition). Samples were pre-incubated with the compounds (10 μM in the screening assay and concentrations in the range 1 nM—50 μM for the dose-response curves) in […] (pH=7.6) buffer containing 0.1%(w/v) BSA. DMSO was used as vehicle control and WWL70 10 μM or THL 20 μM as positive controls. [^3H]-2-OG (10 μM final concentration) was added and after incubation of 5 min at 37 °C, the reaction was stopped by the addition of 400 μl of ice-cold CHCl3:MeOH (1:1). The samples were vortex and centrifuged (16,100g 10 min 4 °C). Aliquots (200 μl) of the aqueous phase were assayed for tritium content by liquid scintillation spectroscopy. The values obtained for each measurement were corrected for non-specific hydrolysis (non-ABHD6 mediated) by subtracting the signal obtained in the hydrolysis of [^3H]- 2-OG by non-transfected HEK293T.

[2] = molecular target: T2, Rat recombinant TRPA1 (Rattus norvegicus, UniProt Q6RI86); experiment: cell-based; format: cell-based; conditions: for EC50: read-out: TRPA1 Potency EC50; for IC50: vs AITC 100μM, 5 min pre-incubation, read-out: TRPA1 IC50 for antagonism or desensitization
T2 construct: expressed in transfected cells

[3] = molecular target: T3, A3 (h) (Homo sapiens, UniProt P0DMS8); experiment: CEREP panel; format: binding; conditions: 10 µM
T3 construct: CEREP
T3 sequence (P0DMS8 1-318): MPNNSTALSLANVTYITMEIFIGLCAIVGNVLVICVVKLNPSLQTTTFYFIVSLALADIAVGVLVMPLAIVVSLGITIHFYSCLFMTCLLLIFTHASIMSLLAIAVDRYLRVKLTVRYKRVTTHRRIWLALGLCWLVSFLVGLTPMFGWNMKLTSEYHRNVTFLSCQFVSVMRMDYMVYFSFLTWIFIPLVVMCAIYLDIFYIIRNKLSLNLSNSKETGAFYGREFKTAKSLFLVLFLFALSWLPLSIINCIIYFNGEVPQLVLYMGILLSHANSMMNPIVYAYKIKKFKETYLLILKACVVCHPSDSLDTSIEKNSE

[4] = molecular target: T4, alpha 1A (h) (Homo sapiens, UniProt P35348); experiment: CEREP panel; format: binding; conditions: 10 µM
T4 construct: CEREP
T4 sequence (P35348 1-466): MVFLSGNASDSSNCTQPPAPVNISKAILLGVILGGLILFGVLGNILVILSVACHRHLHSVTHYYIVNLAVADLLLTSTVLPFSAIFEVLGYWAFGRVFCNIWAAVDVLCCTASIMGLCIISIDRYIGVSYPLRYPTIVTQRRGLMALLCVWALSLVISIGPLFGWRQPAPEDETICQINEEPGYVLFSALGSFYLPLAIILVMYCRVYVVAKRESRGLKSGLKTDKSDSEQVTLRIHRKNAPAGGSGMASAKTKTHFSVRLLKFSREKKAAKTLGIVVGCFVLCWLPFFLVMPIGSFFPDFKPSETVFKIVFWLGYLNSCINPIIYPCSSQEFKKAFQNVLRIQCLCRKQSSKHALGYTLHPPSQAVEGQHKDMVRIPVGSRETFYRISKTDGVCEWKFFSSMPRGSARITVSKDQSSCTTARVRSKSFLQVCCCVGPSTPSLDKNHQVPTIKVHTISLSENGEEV

[5] = system: PCP; format: binding; conditions: 10 µM
[6] = molecular target: T5, mCB1R (Mus musculus, UniProt P47746); experiment: biochemical; format: binding
T5 construct: from tissue; host or cells: brain of male C57BL/6J mice

[7] = 1 μM
[8] = molecular target: T6, Rat recombinant TRPM8 (Rattus norvegicus, UniProt Q8R455); experiment: TRP channel [Ca2+]i assay; format: cell-based; conditions: read-out: TRPM8 IC50 for antagonism of icilin
T6 construct: expressed in transfected cells; host or cells: HEK293 (TRPM8-HEK-293, gift from Mario van der Stelt)

[9] = molecular target: hCB2R (Homo sapiens, UniProt P34972); set-up: expressed in transfected cells; host or cells: Flp-In-293 (Invitrogen #R750-07), pcDNA5/FRT
hCB2R, sequence (P34972 whole entry): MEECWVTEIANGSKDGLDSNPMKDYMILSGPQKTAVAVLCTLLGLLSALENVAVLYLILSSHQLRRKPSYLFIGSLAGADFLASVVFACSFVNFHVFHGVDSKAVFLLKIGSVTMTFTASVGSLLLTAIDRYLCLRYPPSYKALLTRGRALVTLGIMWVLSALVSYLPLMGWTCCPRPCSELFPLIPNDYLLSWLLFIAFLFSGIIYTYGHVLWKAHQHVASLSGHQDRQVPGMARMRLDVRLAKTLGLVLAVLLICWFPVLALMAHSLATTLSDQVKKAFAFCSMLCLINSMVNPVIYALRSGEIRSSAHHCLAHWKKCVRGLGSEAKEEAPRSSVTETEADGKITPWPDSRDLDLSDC

T2 sequence (Q6RI86 whole entry): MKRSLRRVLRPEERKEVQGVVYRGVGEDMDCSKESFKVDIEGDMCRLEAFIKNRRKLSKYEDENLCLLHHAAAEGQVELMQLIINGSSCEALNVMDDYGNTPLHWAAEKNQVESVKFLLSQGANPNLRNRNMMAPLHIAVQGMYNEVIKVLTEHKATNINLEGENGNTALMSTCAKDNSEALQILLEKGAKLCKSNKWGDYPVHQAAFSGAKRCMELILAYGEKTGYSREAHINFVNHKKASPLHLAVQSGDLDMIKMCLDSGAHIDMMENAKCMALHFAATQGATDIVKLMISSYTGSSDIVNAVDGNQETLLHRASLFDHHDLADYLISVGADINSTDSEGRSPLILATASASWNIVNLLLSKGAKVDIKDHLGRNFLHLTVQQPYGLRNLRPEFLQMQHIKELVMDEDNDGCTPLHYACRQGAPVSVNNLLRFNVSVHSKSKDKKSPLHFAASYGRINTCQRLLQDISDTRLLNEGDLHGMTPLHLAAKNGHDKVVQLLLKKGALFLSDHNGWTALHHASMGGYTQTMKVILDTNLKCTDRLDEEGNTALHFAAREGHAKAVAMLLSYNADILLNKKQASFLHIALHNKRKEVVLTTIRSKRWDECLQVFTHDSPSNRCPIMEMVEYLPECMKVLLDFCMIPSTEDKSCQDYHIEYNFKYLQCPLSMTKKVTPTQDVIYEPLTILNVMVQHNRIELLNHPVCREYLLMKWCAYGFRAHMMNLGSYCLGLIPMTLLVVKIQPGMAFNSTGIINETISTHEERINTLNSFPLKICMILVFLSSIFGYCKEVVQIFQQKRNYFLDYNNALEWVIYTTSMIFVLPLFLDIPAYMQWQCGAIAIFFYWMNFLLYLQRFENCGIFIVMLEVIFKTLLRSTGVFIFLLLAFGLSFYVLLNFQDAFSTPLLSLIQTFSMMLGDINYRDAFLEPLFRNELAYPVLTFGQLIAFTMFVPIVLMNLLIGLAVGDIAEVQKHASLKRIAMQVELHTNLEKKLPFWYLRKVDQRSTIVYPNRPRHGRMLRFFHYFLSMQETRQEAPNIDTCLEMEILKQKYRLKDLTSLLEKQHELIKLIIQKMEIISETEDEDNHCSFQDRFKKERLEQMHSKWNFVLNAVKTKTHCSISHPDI
T5 sequence (P47746 whole entry): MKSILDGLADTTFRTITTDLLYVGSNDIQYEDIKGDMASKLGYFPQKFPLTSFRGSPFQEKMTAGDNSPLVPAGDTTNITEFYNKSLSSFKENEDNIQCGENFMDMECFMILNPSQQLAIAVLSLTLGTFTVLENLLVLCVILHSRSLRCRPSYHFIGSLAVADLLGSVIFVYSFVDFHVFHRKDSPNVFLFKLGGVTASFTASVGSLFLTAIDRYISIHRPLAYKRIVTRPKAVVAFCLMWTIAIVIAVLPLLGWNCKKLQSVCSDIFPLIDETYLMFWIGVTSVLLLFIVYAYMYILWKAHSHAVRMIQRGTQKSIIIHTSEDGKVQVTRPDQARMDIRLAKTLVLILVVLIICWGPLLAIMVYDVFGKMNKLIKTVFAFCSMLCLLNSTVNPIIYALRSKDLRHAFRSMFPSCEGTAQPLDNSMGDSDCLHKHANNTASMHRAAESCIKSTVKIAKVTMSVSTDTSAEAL
T6 sequence (Q8R455 whole entry): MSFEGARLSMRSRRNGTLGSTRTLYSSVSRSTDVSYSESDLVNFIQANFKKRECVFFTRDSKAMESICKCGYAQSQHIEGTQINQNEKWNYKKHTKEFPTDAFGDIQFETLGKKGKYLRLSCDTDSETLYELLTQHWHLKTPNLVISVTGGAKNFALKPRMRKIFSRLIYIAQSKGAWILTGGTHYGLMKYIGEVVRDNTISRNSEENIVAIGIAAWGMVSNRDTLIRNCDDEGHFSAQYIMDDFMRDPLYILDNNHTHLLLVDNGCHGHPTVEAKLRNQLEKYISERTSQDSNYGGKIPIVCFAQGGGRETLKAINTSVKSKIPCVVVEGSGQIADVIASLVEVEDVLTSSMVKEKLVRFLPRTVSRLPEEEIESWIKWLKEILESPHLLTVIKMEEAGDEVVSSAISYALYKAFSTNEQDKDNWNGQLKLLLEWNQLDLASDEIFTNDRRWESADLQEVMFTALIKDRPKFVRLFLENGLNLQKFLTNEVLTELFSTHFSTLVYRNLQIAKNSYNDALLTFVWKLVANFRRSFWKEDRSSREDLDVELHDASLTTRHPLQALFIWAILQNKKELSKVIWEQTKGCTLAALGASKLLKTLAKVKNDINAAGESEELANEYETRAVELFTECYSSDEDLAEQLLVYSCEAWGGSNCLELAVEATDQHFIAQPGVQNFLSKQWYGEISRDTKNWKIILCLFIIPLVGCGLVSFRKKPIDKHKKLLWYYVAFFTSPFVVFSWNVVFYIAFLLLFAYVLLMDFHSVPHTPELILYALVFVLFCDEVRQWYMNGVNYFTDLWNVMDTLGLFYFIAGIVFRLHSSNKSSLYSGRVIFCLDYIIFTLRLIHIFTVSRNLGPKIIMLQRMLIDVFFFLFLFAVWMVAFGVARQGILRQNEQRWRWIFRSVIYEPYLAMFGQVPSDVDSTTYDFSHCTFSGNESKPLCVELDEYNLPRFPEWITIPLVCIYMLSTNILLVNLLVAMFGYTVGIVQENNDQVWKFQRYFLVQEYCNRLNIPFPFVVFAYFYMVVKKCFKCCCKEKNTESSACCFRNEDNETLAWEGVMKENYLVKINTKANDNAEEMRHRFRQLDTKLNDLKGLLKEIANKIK

SR144528
ABHD12 % inhibition ([1]; single point): < 25%
TRPA1 Efficacy (%AITC 100μM) [2]: 43.8%
% inhibition A3 (h) [3]: 72%
% inhibition alpha 1A (h) [4]: -1%
% inhibition PCP [5]: -13%

CCCn1c(C)c(C(=O)c2cccc3ccccc23)c2ccccc21 [JWH015]
pKi ± SEM mCB1R ([6]; mouse brain membranes): 5.94 ± 0.15
% inhibition A3 (h) [3]: 93%
% inhibition alpha 1A (h) [4]: 16%
% inhibition PCP [5]: -19%
CL microsomes mouse [7]: 989 µL/min/mg protein

CCCC(C)(C)c1ccc2c(c1)OC(C)(C)[C@@H]1CC=C(C)C[C@@H]21 [JWH133]
pKi ± SEM mCB1R [6]: 6.09 ± 0.13
TRPA1 Efficacy (%AITC 100μM) [2]: 76.8% and 77 ± 4% and 76.8±3.8%
EC50 [2]: 8.5 ± 2.3 µM
IC50 [2]: 20 µM
IC50 ([8]; vs icilin […]): 48.4 ± 3.5 µM
% inhibition A3 (h) [3]: -26%
% inhibition alpha 1A (h) [4]: -5%
% inhibition PCP [5]: 2%
CL microsomes mouse [7]: 63 µL/min/mg protein
GIRK-GTPγS bias factor (BF) [9]: 1.32
GIRK-GTPγS ΔΔlogR [9]: 0.12 ± 0.57
GIRK-cAMP bias factor (BF) [9]: 3.54
GIRK-cAMP ΔΔlogR [9]: 0.55 ± 0.42
GTPγS-cAMP bias factor (BF) [9]: 2.67
GTPγS-cAMP ΔΔlogR [9]: 0.43 ± 0.40
LogR GIRK [9]: 5.98
LogR GTPγS [9]: 6.27
LogR cAMP [9]: 8.28
LogR pERK [9]: 7.07
LogR β-AR [9]: 8.02
RE GIRK [9]: 0.01
RE GTPγS [9]: 0.01
RE cAMP [9]: 0.004
RE pERK [9]: 0.01
RE β-AR [9]: 0.33
pERK-GIRK bias factor (BF) [9]: 0.84
pERK-GIRK ΔΔlogR [9]: -0.08
pERK-GTPγS bias factor (BF) [9]: 1.11
pERK-GTPγS ΔΔlogR [9]: 0.05 ± 0.46
pERK-cAMP bias factor (BF) [9]: 2.97
pERK-cAMP ΔΔlogR [9]: 0.47 ± 0.26
ΔLogR GIRK [9]: -1.89
ΔLogR GTPγS [9]: -2.01
ΔLogR cAMP [9]: -2.44
ΔLogR pERK [9]: -1.96
ΔLogR β-AR [9]: -0.48
β-AR-GIRK bias factor (BF) [9]: 25.53
β-AR-GIRK ΔΔlogR [9]: 1.41 ± 0.43
β-AR-GTPγS bias factor (BF) [9]: 33.81
β-AR-GTPγS ΔΔlogR [9]: 1.53 ± 0.41
β-AR-cAMP bias factor (BF) [9]: 90.36
β-AR-cAMP ΔΔlogR [9]: 1.96 ± 0.15
β-AR-pERK bias factor (BF) [9]: 30.41
β-AR-pERK ΔΔlogR [9]: 1.48 ± 0.27

Cc1c(C(=O)NN2CCCCC2)nn(-c2ccc(Cl)cc2Cl)c1-c1ccc(Cl)cc1 [SR141716A]
IC50 [1]: 6.1 µM
TRPA1 Efficacy (%AITC 100μM) [2]: 67.3% and 67 ± 1%
EC50 [2]: 1.9 µM
IC50 [2]: 12.5 µM
IC50 ([8]; icilin concentration not given): 0.041 ± 0.0109 µM

CN1CCCCC1Cn1cc(C(=O)c2cc([N+](=O)[O-])ccc2I)c2ccccc21 (racemic) [(rac)-AM1241]
pKi ± SEM mCB1R [6]: 5.91 ± 0.16
CL microsomes mouse [7]: 254 µL/min/mg protein
GIRK-GTPγS bias factor (BF) ([9]; hCB2R): 1.08
GIRK-GTPγS ΔΔlogR ([9]; hCB2R): 0.03 ± 0.46
LogR GIRK ([9]; hCB2R): 5.52
LogR GTPγS ([9]; hCB2R): 5.9
LogR pERK ([9]; hCB2R): 8.67
LogR β-AR ([9]; hCB2R): 7.95
pERK-GIRK bias factor (BF) ([9]; hCB2R): 95.72
pERK-GIRK ΔΔlogR ([9]; hCB2R): 1.98 ± 0.71
pERK-GTPγS bias factor (BF) ([9]; hCB2R): 103.28
pERK-GTPγS ΔΔlogR ([9]; hCB2R): 2.01 ± 0.8
β-AR-GIRK bias factor (BF) ([9]; hCB2R): 62.37
β-AR-GIRK ΔΔlogR ([9]; hCB2R): 1.8 ± 0.49
β-AR-GTPγS bias factor (BF) ([9]; hCB2R): 68.30
β-AR-GTPγS ΔΔlogR ([9]; hCB2R): 1.83 ± 0.61
β-AR-pERK bias factor (BF) ([9]; hCB2R): 0.65
β-AR-pERK ΔΔlogR ([9]; hCB2R): -0.19 ± 0.81
ΔLogR GIRK ([9]; hCB2R, reference CP55940): -2.35
ΔLogR GTPγS ([9]; hCB2R, reference CP55940): -2.38
ΔLogR pERK ([9]; hCB2R, reference CP55940): -0.37
ΔLogR β-AR ([9]; hCB2R, reference CP55940): -0.55
RE GIRK ([9]; hCB2R, relative effectiveness): 0.004
RE GTPγS ([9]; hCB2R, relative effectiveness): 0.004
RE pERK ([9]; hCB2R, relative effectiveness): 0.43
RE β-AR ([9]; hCB2R, relative effectiveness): 0.28

Cc1c(C(=O)NN2CCCCC2)nn(-c2ccc(Cl)cc2Cl)c1-c1ccc(I)cc1 [AM251]
IC50 ([1]; read-out: ABHD12 IC50 (95% CI), full dose-response): 1.6 µM
TRPA1 Efficacy (%AITC 100μM) [2]: 44.4%
% inhibition A3 (h) [3]: 93%
% inhibition alpha 1A (h) [4]: 6%
